Consider three molecules from patent US20030008358A1, “Method of producing L-serine by fermentation” (AJINOMOTO CO. INC, priority 1998, published 2003).

Assay [1] relates to 3-PGDH derived from AJ13327 strain. The experiment in a line: Feedback inhibition of 3-PGDH from AJ13327 by L-serine. It counts as biochemical, Brevibacterium flavum. Here is the method: (§1) The activity of 3-PGDH can be determined, for example, by the measurement of a decrease in coenzyme NADH2 in a reverse reaction (E. Sugimoto and L. I. Pizer, JBC, 243, 2081, 1968) or synthesis of coenzyme NADH2 in a forward reaction (Salach H. J. Method in Enzymology, vol.9, 216-220, 1966) by absorbance at 340 nm.
Brevibacterium flavum AJ13324, AJ13325 and AJ13327 were each incubated on a bouillon agar medium at 30° C. for 24 hours and a loopful of each microorganism was inoculated in a 500 ml shaking flask containing 50 ml of a fermentation medium having the composition shown in Table 2. As a control, the parent strains Brevibacterium flavum ATCC 14067 and AJ13377 were inoculated as a same manner as described above. The medium for inoculation was adjusted to pH 5.5 with sodium hydroxide and autoclaved at 115° C. for 15 minutes.
After collecting cells from the culture broth of each strain, the cells were washed twice with physiological saline and suspended in 50 mM sodium phosphate buffer (pH 7.0) containing 2 mM dithiothreitol. After ice cooling, the suspension was subjected to a sonicator to fragment the cells and the resulting liquid was ultracentrifuged. The ultracentrifugaton was run at 45,000 rpm for 1 hour to obtain a crude enzyme solution.
(§2) The enzyme activity of 3-PGDH was measured by the method of Salach H. J. et al. (Method in Enzymology, vol 9, 216-220 (1966)).
[…] Then, 0.2 ml of the crude enzyme solution was added and the temperature was kept the same for 5 minutes. Thereafter, 0.5 ml of 0.1 M 3-PGA (3-phosphoglycerate disodium salt, pH 7, NaOH) was added. After stirring, the absorbance at 340 nm of the reaction mixture was measured for 30 seconds. The reaction was carried out at 25° C.
For the measurement of activity, Hitachi U-2000A spectrophotometer was used.

The test system of assay [2] is 3-PGDH derived from AJ13324 strain. Briefly: Feedback inhibition of 3-PGDH from AJ13324 by L-serine. It counts as biochemical, Brevibacterium flavum. As to conditions: crude enzyme solution; FIG. 1. Here is the method:
as §1
(§3) Brevibacterium flavum AJ13324, AJ13325 and AJ13327 were each incubated on a bouillon agar medium at 30° C. for 24 hours and a loopful of each microorganism was inoculated in a 500 ml shaking flask containing 50 ml of a fermentation medium having the composition shown in Table 2. As a control, the parent strains Brevibacterium flavum ATCC 14067 and AJ13377 were inoculated as a same manner as described above. The medium for inoculation was adjusted to pH 5.5 with sodium hydroxide and autoclaved at 115° C. for 15 minutes. […]
as §2
(§4) More specifically, 0.4 ml of 0.015 M NAD, 0.12 ml of 0.25 M EDTA (pH 9, NaOH), 0.1 ml of 0.05 M glutathione (pH 6, KOH), 0.5 ml of 1 M hydrazine (pH 9, acetate), 0.6 ml of 1 M Tris (pH 9, HCl), a suitable concentration of L-serine (0 to 40 mM), and water to make 2.3 ml, warmed to 25° C. in advance, were added. […] After stirring, the absorbance at 340 nm of the reaction mixture was measured for 30 seconds. […]

The test system of assay [3] is 3-PGDH derived from ATCC14067 strain (wild type). The experiment in a line: Feedback inhibition of wild type 3-PGDH by L-serine. The class given is biochemical, Brevibacterium flavum. As to conditions: wild type coryneform bacterium 3-PGDH; 10 mM L-serine. Here is the method:
as §1, §3, §2, §4

Assay [4] relates to 3-PGDH derived from AJ13377 strain. The experiment in a line: Feedback inhibition of 3-PGDH from AJ13377 by L-serine. The class given is biochemical, Brevibacterium flavum. The note with it: crude enzyme solution; compared with wild type strain ATCC 14067; FIG. 1. Here is the method: as §1, §3, §2, §4
Assay [5] has as its system Brevibacterium flavum AJ13324 and AJ13327. Briefly: Growth of azaserine resistant strains in the presence of azaserine. It counts as cell-based. The note with it: 0.25 g/L of azaserine. Here is the method: The term “azaserine resistance” refers to the property that a bacterium grows faster than the wild type in a medium containing azaserine. For example, those strains that form colonies on a solid medium containing 0.25 g/L of azaserine at 30° C. within 4 to 5 days are said to have azaserine resistance.
To select azaserine resistant strains from NG treated strains using Brevibacterium flavum AJ13377 as a parent strain, NG treated Brevibacterium flavum AJ13377 cells after washed were inoculated on a minimal medium for selection. The minimal medium for selection was a medium that contained 20 g of glucose, 1 g of ammonium sulfate, 1 g of potassium dihydrogen phosphate, 2.5 g of urea, 0.4 g of magnesium sulfate heptahydrate, 0.01 g of iron (II) sulfate heptahydrate, 0.01 g of manganese sulfate tetra- to pentahydrate, 50 μg of biotin, 200 μg of thiamin hydrochloride, 200 μg of nicotinic acid amide, and 250 mg of azaserine per liter of distilled water. The NG treated mutant was incubated in the above-described medium at 30° C. for 5 to 10 days. The cell culture thus obtained was spread on a bouillon agar medium and incubated at 30° C. for 24 hours for colony formation. Azaserine resistant strains were obtained from the strains that formed colonies. The mutants thus obtained included many strains that accumulated L-serine in considerable amounts at high yields. […]

Assay [6] deals with Brevibacterium flavum AJ13325. Briefly: Growth of β-(2-thienyl)-DL-alanine resistant strains in the presence of β-(2-thienyl)-DL-alanine. The class given is cell-based. As to conditions: 0.25 g/L of β-(2-thienyl)-DL-alanine. Here is the method:
Similarly, the term “β-(2-thienyl)-DL-alanine resistance” refers to the property that a bacterium grows faster than the wild type in a medium containing β-(2-thienyl)-DL-alanine. For example, those strains that form colonies on a solid medium containing 0.25 g/L of β-(2-thienyl)-DL-alanine at 30° C. within 4 to 5 days are said to have β-(2-thienyl)-DL-alanine resistance.
To select B-(2-thienyl)-DL-alanine resistant strains from NG treated strains using Brevibacterium flavum AJ13377 as a parent strain, Brevibacterium flavum AJ13377 cells were NG treated and washed before their inoculation on a minimal medium for selection. The minimal medium for selection was a medium that contained 20 g of glucose, 1 g of ammonium sulfate, 1 g of potassium dihydrogen phosphate, 2.5 g of urea, 0.4 g of magnesium sulfate heptahydrate, 0.01 g of iron (II) sulfate heptahydrate, 0.01 g of manganese sulfate tetra- to pentahydrate, 50 μg of biotin, 200 μg of thiamin hydrochloride, 200 μg of nicotinic acid amide, and 250 mg of β-(2-thienyl)-DL-alanine per liter of distilled water. The NG treated mutant was incubated in the above-described medium at 30° C. for 5 to 10 days. The cell culture thus obtained was spread on a bouillon agar medium and incubated at 30° C. for 24 hours for colony formation. β-(2-Thienyl)-DL-alanine resistant strains were obtained from the strains that formed colonies. […]

On to `N[C@@H](CO)C(=O)O` [L-serine], for which the “3-PGDH activity retained in the presence of L-serine (relative to absence of L-serine)” value in assay [1] (80 mM L-serine) is listed as approximately 100%. The “feedback inhibition of 3-PGDH by L-serine” value in assay [1] (80 mM L-serine, FIG. 1) is recorded as “completely desensitized”. The “L-serine sensitivity of 3-PGDH” value in assay [1] (crude enzyme solution, FIG. 1) is listed as “relieved of L-serine sensitivity greatly”; in assay [2], “more relieved of L-serine sensitivity”; in assay [4], “relieved of L-serine sensitivity”. Besides, the “3-PGDH activity in the presence of L-serine” value in assay [3] was “almost completely inhibited”.

As to `[N-]=[N+]=CC(=O)OC[C@H](N)C(=O)O` [azaserine], the “growth in the presence of azaserine” value in assay [5] is given as “able to grow”.

`NC(Cc1cccs1)C(=O)O` (racemic) [β-(2-thienyl)-DL-alanine]: in assay [6], the “growth in the presence of β-(2-thienyl)-DL-alanine” value was “able to grow”.
